Laboratory results reported in patent publication US20250034216A1, “STEREOSELECTIVE COVALENT LIGANDS FOR ONCOGENIC AND IMMUNOLOGICAL PROTEINS” (The Scripps Research Institute, priority 2021, published 2025).

Experiments:
Experiment in all cases: IA-DTB cysteine engagement
Assay type in all cases: binding
Details in all cases: 22Rv1 cells, 20 μM probe, 1 h, relative to DMSO
CNOT4_C175 = biological target: T1, CNOT4_C175 (Homo sapiens, UniProt O95628)
T1 construct: endogenous in cells; host or cells: 22Rv1
T1 sequence (O95628 1-575): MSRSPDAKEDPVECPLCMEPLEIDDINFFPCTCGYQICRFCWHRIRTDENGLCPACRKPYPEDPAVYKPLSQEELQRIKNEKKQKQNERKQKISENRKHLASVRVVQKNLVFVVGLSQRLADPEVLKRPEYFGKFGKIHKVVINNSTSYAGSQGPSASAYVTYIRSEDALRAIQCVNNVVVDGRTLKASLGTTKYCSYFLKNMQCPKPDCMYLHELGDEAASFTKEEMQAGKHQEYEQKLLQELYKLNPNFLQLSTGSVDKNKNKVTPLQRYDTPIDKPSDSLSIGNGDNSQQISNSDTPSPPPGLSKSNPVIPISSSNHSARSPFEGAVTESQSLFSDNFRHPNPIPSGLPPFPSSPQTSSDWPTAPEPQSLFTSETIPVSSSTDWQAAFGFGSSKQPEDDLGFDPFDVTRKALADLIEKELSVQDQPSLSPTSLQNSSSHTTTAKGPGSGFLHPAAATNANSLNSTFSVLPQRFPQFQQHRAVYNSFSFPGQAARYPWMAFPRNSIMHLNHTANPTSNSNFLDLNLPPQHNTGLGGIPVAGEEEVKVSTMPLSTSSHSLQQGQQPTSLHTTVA
How it was run: (§1)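 First, cells are exposed to electrophilic probes in situ. Next, lysates are labeled with IA-DTB (1 h, ambient temperature), reduced, alkylated and trypsin-digested. Then, IA-DTB peptides are enriched on streptavidin, TMT-labeled and analyzed, with ratios taken against DMSO channels.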

PAFAH2_C72 = biological target: T2, PAFAH2_C72 (Homo sapiens, UniProt Q99487)
T2 construct: endogenous in cells; host or cells: 22Rv1
How it was run: as §1

PLPPR2_C207 = biological target: T3, PLPPR2_C207 (Homo sapiens, UniProt Q96GM1)
T3 construct: endogenous in cells; host or cells: 22Rv1
T3 sequence (Q96GM1 1-343): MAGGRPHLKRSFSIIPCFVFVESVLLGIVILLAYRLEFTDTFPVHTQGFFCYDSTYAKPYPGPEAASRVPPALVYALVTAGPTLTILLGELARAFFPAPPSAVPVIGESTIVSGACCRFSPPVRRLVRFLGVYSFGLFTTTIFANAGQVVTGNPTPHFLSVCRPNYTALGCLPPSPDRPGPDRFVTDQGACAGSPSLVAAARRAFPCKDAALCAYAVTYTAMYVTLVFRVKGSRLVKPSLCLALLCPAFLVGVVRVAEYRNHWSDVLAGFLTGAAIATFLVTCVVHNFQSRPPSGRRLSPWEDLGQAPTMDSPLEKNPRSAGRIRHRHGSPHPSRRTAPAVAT
How it was run: as §1

% engagement CNOT4_C175 (CNOT4_C175) [%] | % engagement PAFAH2_C72 (PAFAH2_C72) [%] | % engagement PLPPR2_C207 (PLPPR2_C207) [%] | Compound
76 | 81 | 71 | C=CC(=O)N1C[C@H](c2ccc(Br)cc2)[C@H]1C(=O)Nc1cccc2cccnc12 [MY-3B, (2S,3S)-1-acryloyl-3-(4-bromophenyl)-N-(quinolin-8-yl)azetidine-2-carboxamide]
−15 | 61 | 31 | C=CC(=O)N1C[C@H](c2ccc(Br)cc2)[C@@H]1C(=O)Nc1cccc2cccnc12 [MY-1B, (2R,3S)-1-acryloyl-3-(4-bromophenyl)-N-(quinolin-8-yl)azetidine-2-carboxamide]
76.5 | 56.75 | 46.5 | C=CC(=O)N1C[C@H](c2ccc(Br)cc2)[C@H]1C(=O)Nc1cccc2cccnc12 [MY-3A, (2S,3S)-1-acryloyl-3-(4-bromophenyl)-N-(quinolin-8-yl)azetidine-2-carboxamide]
0 | 61.75 | 30.5 | C=CC(=O)N1C[C@@H](c2ccc(Br)cc2)[C@H]1C(=O)Nc1cccc2cccnc12 [MY-1A, (2S,3R)-1-acryloyl-3-(4-bromophenyl)-N-(quinolin-8-yl)azetidine-2-carboxamide]
